Data on three molecules can be found in patent US20080293683A1, “Hormone Replacement Therapy” (University of Kansas Medical Center, priority 2007, published 2008).

Bounds are passed on as bounds.

One experiment concerns postmenopausal person. Conditions: singular use; cited from earlier work.
Another experiment addresses T1, recombinant human ERβ (Homo sapiens, UniProt Q92731).
T1 construct: purchased PanVera Corporation (Madison, Wis.); host or cells: baculovirus-mediated expression system
The experiment in a line: ERβ binding assay: competition of [3H]E2 binding by competing estrogens. Conditions: for IC50: read-out: ERβ IC50.

The target of a further experiment is T2, recombinant human ERα (Homo sapiens, UniProt P03372).
T2 construct: purchased PanVera Corporation (Madison, Wis.); host or cells: baculovirus-mediated expression system
T2 sequence (P03372 1-595): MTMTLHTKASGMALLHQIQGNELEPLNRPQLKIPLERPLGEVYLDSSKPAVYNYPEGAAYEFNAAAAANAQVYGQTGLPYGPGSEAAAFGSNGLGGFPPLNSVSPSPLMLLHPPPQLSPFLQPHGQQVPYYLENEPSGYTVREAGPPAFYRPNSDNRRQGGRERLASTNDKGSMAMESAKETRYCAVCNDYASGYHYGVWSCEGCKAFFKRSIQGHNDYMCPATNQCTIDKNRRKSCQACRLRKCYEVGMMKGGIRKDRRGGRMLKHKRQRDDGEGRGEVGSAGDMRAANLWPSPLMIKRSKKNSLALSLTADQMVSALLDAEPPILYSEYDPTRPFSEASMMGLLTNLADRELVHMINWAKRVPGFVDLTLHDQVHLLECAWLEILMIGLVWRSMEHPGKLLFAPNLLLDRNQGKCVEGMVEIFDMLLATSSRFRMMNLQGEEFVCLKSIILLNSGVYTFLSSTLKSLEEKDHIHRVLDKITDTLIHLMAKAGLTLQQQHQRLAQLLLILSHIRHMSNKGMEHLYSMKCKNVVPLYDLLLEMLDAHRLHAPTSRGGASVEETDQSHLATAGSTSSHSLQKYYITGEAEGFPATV
Nature of the experiment: ERα binding assay: competition of [3H]E2 binding by competing estrogens. Conditions: for IC50: read-out: ERα IC50.

T1 sequence (Q92731 whole entry): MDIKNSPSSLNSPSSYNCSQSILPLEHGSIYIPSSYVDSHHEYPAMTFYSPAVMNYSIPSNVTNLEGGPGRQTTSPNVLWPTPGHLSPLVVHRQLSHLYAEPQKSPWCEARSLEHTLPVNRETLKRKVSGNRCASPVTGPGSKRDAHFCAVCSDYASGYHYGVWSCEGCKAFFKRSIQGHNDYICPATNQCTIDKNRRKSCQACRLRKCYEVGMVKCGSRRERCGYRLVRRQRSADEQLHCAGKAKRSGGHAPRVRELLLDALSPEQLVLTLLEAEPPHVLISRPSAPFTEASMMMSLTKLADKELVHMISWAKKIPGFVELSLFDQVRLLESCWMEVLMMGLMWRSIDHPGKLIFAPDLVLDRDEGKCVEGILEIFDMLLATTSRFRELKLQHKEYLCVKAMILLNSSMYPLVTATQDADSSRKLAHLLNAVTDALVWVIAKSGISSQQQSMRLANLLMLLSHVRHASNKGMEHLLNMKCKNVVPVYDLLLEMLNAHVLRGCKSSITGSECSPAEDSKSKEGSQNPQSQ

With `O=c1c(-c2ccc(O)cc2)coc2cc(O)cc(O)c12` [Genistein], the “effectiveness as hormone replacement therapy” value with postmenopausal person is “ineffective”.
The IC50 is the midpoint of a concentration-inhibition curve. Turning to `CC[C@H](c1ccc(O)cc1)[C@@H](CC)c1ccc(O)cc1` [Hexestrol, reference compound], the “RBAβ (%) (relative binding affinity for ERβ, of E2)” value on recombinant human ERβ (calculated against E2 = 100) was 60%. In addition, the IC50 at recombinant human ERβ came out at 18.6 nM; on recombinant human ERα, 36.3 nM. Further, the “RBAα % (relative binding affinity for ERα, of E2)” value on recombinant human ERα (calculated against E2 = 100) is 31%. In addition, at recombinant human ERα (ratio of relative binding affinities ERα over ERβ), the RBAα/RBAβ was 0.5.
In the case of `O=c1c(O)c(-c2cc(O)c(O)c(O)c2)oc2cc(O)cc(O)c12` [Myricetin, reference compound], the “binding affinity for ERβ (in words)” value on recombinant human ERβ (concentrations up to 1000 nM) was “no appreciable binding affinity”. Moreover, the IC50 on recombinant human ERβ and on recombinant human ERα was over 1000 nM throughout. The “binding affinity for ERα (in words)” value at recombinant human ERα (concentrations up to 1000 nM) is given as “no appreciable binding affinity”.
